From PMC4357015, “Structure, Function and Inhibition of the Phosphoethanolamine Methyltransferases of the Human Malaria Parasites Plasmodium vivax and Plasmodium knowlesi” (Scientific Reports, 2015)

Tests used:
PvPMT = biological target: T1, PvPMT (Plasmodium vivax, UniProt A5K867); assay: radiometric PMT transmethylation assay, inhibition of PvPMT; assay type: biochemical; conditions: P-Etn 2 mM, SAM 1.5 mM; inhibitor 0, 100, 500, 1000 μM; read-out: IC50, inhibition of PvPMT activity
T1 sequence (A5K867 1-264): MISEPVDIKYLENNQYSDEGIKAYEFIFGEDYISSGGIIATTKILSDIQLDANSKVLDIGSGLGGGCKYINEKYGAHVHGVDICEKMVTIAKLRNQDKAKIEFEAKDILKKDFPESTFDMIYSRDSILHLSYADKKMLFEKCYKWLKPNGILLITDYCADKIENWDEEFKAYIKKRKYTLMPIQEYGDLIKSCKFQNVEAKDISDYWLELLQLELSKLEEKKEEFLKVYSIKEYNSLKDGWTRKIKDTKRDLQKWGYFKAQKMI
Protocol: (§1) Figure 3 Amodiaquine (AQ) and NSC158011 inhibit the activity of PvPMT and PkPMT. Enzyme inhibition assays with different concentrations of Amodiaquine (AQ), NSC158011 and Chloroquine (CQ) were carried out at constant P-Etn (2 mM) and SAM (1.5 mM) concentrations. The activity in the absence of any drug was taken as 100% and % enzyme activity was calculated in the presence of different drug concentrations (100, 500, 1000 μM). To determine the concentration that results in 50% inhibition of enzyme activity (IC50), the data were fitted to a non-linear regression analysis in the following equation Y = 100/(1 + ([X]/IC50)), where Y is % enzyme activity and X is drug concentration using Graph pad software.
(§2) For enzyme kinetics studies recombinant histidine-tagged proteins were expressed using 1 mM IPTG for 4 h, purified using Ni-affinity purification and dialyzed. As expected, purified proteins migrated in SDS-PAGE gels at approximately 31 kDa. The purified proteins were stored in HEPES-KOH buffer (pH 7.4) at 4°C and were assayed within a month of purification. During this time, the integrity of the protein was assessed by SDS-PAGE. The kinetic properties of enzymes were assessed using radiometric assay wherein incorporation of radioactive labeled methyl donor (100nCi [methyl-^14C] SAM, Perkin elmer NEC363010UC) or (200nCi [methyl-^3H] SAM, Perkin Elmer NET155H250UC) was measured. […]

pem1Δpem2Δ-pYES2.1-PkPMT = assay: yeast growth inhibition, pem1Δpem2Δ strain expressing PkPMT; assay type: cell-based; conditions: 100 μM AQ
Protocol: Figure 5 PMT-dependent inhibition of growth and PC biosynthesis by amodiaquine and NSC158011. (A–C): Growth curves of pem1Δpem2Δ-pYES2.1-PkPMT (A), pem1Δpem2Δ-pYES2.1-PvPMT (B), or Wild Type-pYES2.1- (C) strains grown in minimal medium containing 4% galactose and 1 mM ethanolamine in the presence or absence of 100 μM choline and 100 μM amodiaquine (AQ) as indicated. Growth curves of pem1Δpem2Δ-pYES2.1-PkPMT (D), pem1Δpem2Δ-pYES2.1-PvPMT (E), or Wild Type-pYES2.1- (F) strains maintained in minimal medium containing 4% galactose and 1 mM ethanolamine in the presence or absence of 100 μM choline and 10 μM NSC158011.
pem1Δpem2Δ-pYES2.1, pem1Δpem2Δ-pYES2.1-PkPMT, pem1Δpem2Δ-pYES2.1-PvPMT, and pem1Δpem2Δ-pYES2.1-PfPMT yeast strains were pre-grown overnight in uracil dropout synthetic galactose (4%) (SG-URA) medium supplemented with 2 mM ethanolamine (Etn). Cells were diluted to an A600 = 0.001 in fresh SG-URA medium supplemented with 2 mM Etn in the presence or absence of 100 μM Choline (Cho). Cells were grown at 30°C and the growth was monitored by measuring the A600. […]

PkPMT = biological target: T2, PkPMT (Plasmodium knowlesi, UniProt A0A384KJX3); assay: radiometric PMT transmethylation assay, inhibition of PkPMT; assay type: biochemical; conditions: P-Etn 2 mM, SAM 1.5 mM; inhibitor 0, 100, 500, 1000 μM; read-out: IC50, inhibition of PkPMT activity
T2 sequence (A0A384KJX3 1-264): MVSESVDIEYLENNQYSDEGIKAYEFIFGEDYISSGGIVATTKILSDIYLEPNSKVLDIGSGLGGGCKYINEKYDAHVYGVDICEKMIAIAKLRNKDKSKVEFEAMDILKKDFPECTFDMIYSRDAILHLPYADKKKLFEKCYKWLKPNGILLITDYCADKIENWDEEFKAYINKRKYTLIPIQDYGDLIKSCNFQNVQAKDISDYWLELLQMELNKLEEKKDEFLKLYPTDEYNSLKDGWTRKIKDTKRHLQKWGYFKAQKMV
Protocol: as §1, §2

How did the IC50 (PvPMT) turn out when `CCN(CC)Cc1cc(Nc2ccnc3cc(Cl)ccc23)ccc1O` [AQ, amodiaquine] was run?
The IC50 was 220 µM.

And the “growth of pem1Δpem2Δ+PkPMT strain in media supplemented with choline” value (pem1Δpem2Δ-pYES2.1-PkPMT; 100 μM choline)?
The value was “no effect”.

And the “growth of pem1Δpem2Δ+PkPMT strain” value (pem1Δpem2Δ-pYES2.1-PkPMT; ethanolamine medium without choline)?
Its value is “significantly inhibited”.

What about the IC50 (PkPMT) of the same molecule?
Its IC50 is 398 µM.
